We go through one compound from EP0563112B1, “ENHANCED BIOAVAILABILITY PHARMACEUTICAL COMPOSITION CONTAINING PROBUCOL” (MERRELL DOW PHARMACEUTICALS INC., priority 1990, dated 1992).

For series [1] the following is noted: Heeg and Tachizawa 1980; cited from earlier work.
Series [2] is described as follows: Solubility determination of probucol in oils and binary solvent systems (HPLC assay). In kind it is physicochemical. The source says: Captex® 200 is a propylene glycol ester of caprylic (C₈) and capric (C₁₀) fatty acids obtained by fractionation of certain coconut oil fatty acids and is known generically as propylene glycol dicaprylate/dicaprate. Captex® 300 is a caprylic and capric acid triglyceride obtained by fractionation and subsequent esterification of coconut oil and is known generically as caprylic/capric triglyceride. Capmul® MCM is a mono and diglyceride of caprylic and capric acids.
Eight grams of each oil were transferred into a glass tube with a teflon liner screw cap, and 2.5 g of probucol were added to each tube. The tubes were capped and shaken by hand until the probucol particles were wetted. The tubes were then rotated for at least 48 hours on a test tube rotating apparatus. The solubility of probucol was determined using a high performance liquid chromatography (HPLC) assay procedure.
In order to determine if the solubility of probucol could be enhanced by incorporating absolute ethanol in the oil, three binary systems: safflower oil:ethanol (90:10), polyethylene glycol (PEG) 400:ethanol (90:10, 80:20, 70:30), and Captex® 200:ethanol (95:5, 90:10, 85:15, 80:20, and 75:25) were evaluated. The solubility data shown in Table II indicate that in each case the solubility of probucol increased in the presence of ethanol.

Consider `CC(C)(Sc1cc(C(C)(C)C)c(O)c(C(C)(C)C)c1)Sc1cc(C(C)(C)C)c(O)c(C(C)(C)C)c1` [probucol, 2,2'-bis (3,5-di-tertiarybutyl-4-hydroxyphenylthio)propane], for which the “bioavailability of probucol from tablet dosage form” value in series [1] is on record as 2-8%. Besides, the “Solubility (%w/v)” value was determined as 26.0 %w/v in series [2] (Captex® 200:Ethanol 75:25); 26.0 %w/v in series [2] (Captex® 200:Ethanol 80:20); 25.0 %w/v in series [2] (Captex® 200:Ethanol 85:15); 24.0 %w/v in series [2] (Captex® 200:Ethanol 90:10); 23.0 %w/v in series [2] (Captex® 200:Ethanol 95:5); 2.8 %w/v in series [2] (PEG 400 100:00). For the same compound, the “Solubility (%w/v)” value in series [2] (PEG 400:Ethanol 80:20) was found to be 9.5 %w/v; in series [2] (PEG 400:Ethanol 90:10), 5.8 %w/v; in series [2] (PEG 400 Ethanol 70:30), 13.1 %w/v; in series [2] (Safflower Oil:Ethanol 90:10) it was 11.5 %w/v; in series [2] (in Capmul® MCM), 6.3 % w/v; in series [2] (in Captex® 200) it was 18.2 % w/v. Besides, the “Solubility (%w/v)” value in series [2] (in Captex® 300) was determined as 12.5 % w/v; in series [2] (in Corn oil), 5.8 % w/v; in series [2] (in Olive oil), 5.5 % w/v; in series [2] (in Peanut oil), 5.6 % w/v; in series [2] (in Safflower oil) it was 5.9 % w/v; in series [2] (in Sunflower oil), 5.8 % w/v. For the same compound, in series [2] (in Vegetable oil), the “Solubility (%w/v)” value was determined as 5.8 % w/v.
